Test results: US20230201174A1, “COMBINATION OF FINERENONE AND A SGLT2 INHIBITOR FOR THE TREATMENT AND/OR PREVENTION OF CARDIOVASCULAR AND/OR RENAL DISEASES” (BAYER AKTIENGESELLSCHAFT, priority 2020, published 2023)

Assays:
[1] = system: healthy volunteers; conditions: dose-dependently induced during the first 24 h; cited from earlier work
[2] = system: Wistar rats with activated renin-angiotensin-aldosterone system; experiment: In vivo assay for detecting natriuretic activity in conscious rats with activated RAAS; design: species or system rat; conditions: for Urinary Glucose concentration / Urinary K+ concentration / Urinary Na+ concentration / Urinary Volume/ body weight: 24 h urine, mean ± SEM
Method: Wistar rats (ca. 250-500 g body weight) were kept with free access to feed (Altromin) and drinking water. […] This sodium-reduced feed causes an activation of the RAAS in the animals during the 3 days run-in phase and therefore mimics a neuroendocrine activation which is characteristic for cardiorenal diseases. […] At the start of the test, the substance to be tested was administered by means of gavage in a volume of 2-3 ml/kg of body weight of a suitable solvent PEG400). Control animals received only solvent (‘S’ or solvent in table 2 below). Controls and substance tests were carried out in parallel on the same day. Control groups and substance-dose groups each consisted of 6 to 10 animals. During the test, the urine excreted by the animals was continuously collected in a receiver on the base of the cage.
In this comparison, eight different administrations were performed (cf. groups A to H):
Group A received the solvent (PEG400) only. This group serves as control group.
Groups B, C and D received three increasing dosages of empagliflozin (SGLT2 inhibitor) only. It serves to detect the effects of the monotherapy with SGLT2 inhibitor.
Group E received a finerenone only. It serves to detect the effect of the monotherapy with finerenone.
Groups F, G and H received finerenone and the three doses of SGLT2 inhibitor in combination, respectively. It serves to detect the effect of the combined therapy with finerenone and empagliflozin (SGLT2 inhibitor) (combination according to the invention).
(§1) After the treatment, the urinary volume, urinary glucose, urinary sodium and potassium concentrations were measured.

[3] = system: Zucker diabetic fatty (ZDF) rats; experiment: In vivo assay for detecting natriuretic activity in chronically treated Zucker diabetic fatty rats; design: species or system rat; conditions: for Urinary Glucose concentration / Urinary K+ concentration / Urinary Na+ concentration / Urinary Volume/ body weight: Table 3, 24 h urine, mean ± SEM; for Urinary Glucose concentration / Urinary K+ concentration / Urinary Na+ concentration / Urinary Volume/ body weight / urinary sodium excretion higher in comparison to solvent control group A: ZDF rats treated 9 weeks; for influence on urinary glucose vs solvent, in words / influence on urinary potassium vs solvent, in words / influence on urinary sodium vs solvent, in words / influence on urinary volume vs solvent, in words: ZDF rats, chronic monotherapy 3 and 10 mg/kg/day, 9 weeks
Description: The Zucker diabetic fatty (ZDF) rat has a missense mutation in the gene coding the leptin receptor (fa/fa) and spontaneously develops insulin resistance, type 2 diabetes mellitus (T2DM), hyperlipidemia, moderate hypertension, and obesity, as well as progressive renal injury. Male homozygous animals develop diabetes mellitus from week 7 to 19 which is reflected in marked hyperglycemia. In addition to diabetic cardiac lesions (e.g. hypertrophy), renal pathology develops with proteinuria, mesangial expansion, macrophage infiltration, and interstitial fibrosis. Heterozygous animals are useful non-diabetic control animals since they develop neither obesity nor insulin resistance.
Male 6-7 weeks old obese (fa/fa) Zucker rats (Charles River) were placed on a high energy diet (Purina Rodent LabDiet 5008, PMI Nutrition. Richmond. Ind.) and were randomized to treatment groups or solvent group when the animals were hyperglycemic. Rats (n=14-16/group) received either solvent [ethanol/Solutol/H2O (10/40/50)] or test compounds in solvent once daily applied to (fa/fa) animals for 4 to 12 weeks.
During the experiment, the systolic blood pressure (determined by tail cuff), urine parameters (e.g. protein, glucose, electrolytes, creatinine, urea and uric acid) and blood plasma parameters (e.g. electrolytes, glucose, creatinine, urea and uric acid) were determined at regular intervals.
Histopathology is performed with cardiac and renal tissue from animals of treatment groups and placebo groups.
In this comparison, six different administrations were performed:
Group A received the solvent [ethanol/Solutol/H2O (10/40/50)] only. This group serves as control group.
Groups B and C received two increasing dosages of empagliflozin (SGLT2 inhibitor) only. It serves to detect the effects of the monotherapy with empagliflozin (SGLT2 inhibitor).
Groups D and E received increasing dosages of finerenone only. It serves to detect the effect of the monotherapy with finerenone.
Group F received a combination of the low dosages of empagliflozin (SGLT2 inhibitor) and finerenone, respectively. It serves to detect the effect of the combined therapy with finerenone and empagliflozin (SGLT2 inhibitor) (combination according to the invention).
as §1

[4] = system: hypertensive and proteinuric L-NAME treated renin-transgenic (mRen2)27 rats; experiment: Non-diabetic cardiorenal rat model: L-NAME treated renin-transgenic (mRen2)27 rats; conditions: up to 7 weeks
Method: Cardiorenal morbidity and mortality was studied in hypertensive and proteinuric L-NAME (20 mg/L) treated renin-transgenic (mRen2)27 rats. […] Key outcome parameters included mortality, blood pressure, proteinuria, kidney histology and gene expression.
Female TGR(mRen2)27 renin rats aged 10 to 20 weeks are randomized to different pharmacological treatment groups and a placebo group. In addition, the nitrogen monoxide synthase inhibitor L-NAME is administered via the drinking water in a concentration of 20 to 100 mg/l. During the entire experiment, drinking water and feed are available ad libitum to the animals. The substances are administered via the feed or daily by gavage for 4-10 weeks. Animals treated in the same way but receiving either only the solvent or the feed without test substance serve as placebo group. During the experiment, the systolic blood pressure is determined at regular intervals using a tail cuff, and proteinuria (expressed as ratio of urinary protein concentration per urinary creatinine concentration) and urine electrolyte composition are determined by collecting the urine in metabolic cages, and mortality is registered on a daily base.
The urine volume per collection time was determined separately for each animal, and the concentration of urinary glucose and electrolyte ions excreted in the urine was measured by standard methods by a clinical-chemical analyzer system (ADVIA 2400, Siemens). The urine was typically collected for 24 hours in metabolic cages.

[5] = Table 5, monotherapy 0.03 mg/kg oral
[6] = Table 5, monotherapy 0.3 mg/kg oral
[7] = Table 5, monotherapy 3 mg/kg oral
[8] = Table 5 study, monotherapy 3 mg/kg
[9] = Table 5 study, monotherapy: dapagliflozin 0.03 and 0.3 mg/kg, finerenone 1 mg/kg
[10] = Table 5 study, monotherapy: dapagliflozin all doses (0.03, 0.3, 3 mg/kg), finerenone 1 mg/kg
[11] = Table 2, monotherapy 1 mg/kg oral
[12] = Table 2 study, monotherapy: empagliflozin 1, 3, 10 mg/kg, finerenone 1 mg/kg
[13] = Table 4, monotherapy 1 mg/kg oral
[14] = Table 4 study, monotherapy: canagliflozin 1 and 3 mg/kg, finerenone 1 mg/kg
[15] = Table 5, monotherapy 1 mg/kg oral
[16] = Table 2, monotherapy 3 mg/kg oral
[17] = Table 2, monotherapy 10 mg/kg oral

CCOc1ccc(Cc2cc([C@@H]3O[C@H](CO)[C@@H](O)[C@H](O)[C@H]3O)ccc2Cl)cc1 [dapagliflozin, (2S,3R,4R,5S,6R)-2-[4-chloro-3-[(4-ethoxyphenyl)methyl]phenyl]-6-(hydroxymethyl)oxane-3,4,5-triol]
natriuresis, in words [1]: returned to baseline after 13 days of intervention | Urinary Glucose concentration [2, 5]: 0.72 ± 0.18 mmol | Urinary K+ concentration [2, 5]: 2.21 ± 0.16 mmol | Urinary Na+ concentration [2, 5]: 0.19 ± 0.05 mmol | Urinary Volume/ body weight [2, 5]: 0.03917 ± 0.00408 L/kg | Urinary Glucose concentration [2, 6]: 5.26 ± 0.29 mmol | Urinary K+ concentration [2, 6]: 2.43 ± 0.07 mmol | Urinary Na+ concentration [2, 6]: 0.19 ± 0.04 mmol | Urinary Volume/ body weight [2, 6]: 0.03884 ± 0.00394 L/kg | Urinary Glucose concentration [2, 7]: 9.71 ± 0.36 mmol | Urinary K+ concentration [2, 7]: 2.34 ± 0.10 mmol | Urinary Na+ concentration [2, 7]: 0.29 ± 0.05 mmol | Urinary Volume/ body weight [2, 7]: 0.04872 ± 0.00153 L/kg | influence on urinary sodium, in words [2, 8]: increase | influence on urinary volume, in words [2, 8]: increase | influence on urinary potassium, in words [2, 9]: no influence | influence on urinary sodium, in words [2, 9]: no influence | influence on urinary volume, in words [2, 9]: no influence | influence on urinary glucose, in words [2, 10]: strong increase

CCOc1ncc(C)c2c1[C@H](c1ccc(C#N)cc1OC)C(C(N)=O)=C(C)N2 [finerenone, (S)-4-(4-cyano-2-methoxyphenyl)-5-ethoxy-2,8-dimethyl-1,4-dihydro-1,6-naphthyridin-3-carboxamide]
Urinary Glucose concentration ([3]; monotherapy 3 mg/kg): 291.98 ± 19.11 mmol | Urinary K+ concentration ([3]; monotherapy 3 mg/kg): 1.94 ± 0.14 mmol | Urinary Na+ concentration ([3]; monotherapy 3 mg/kg): 1.39 ± 0.12 mmol | Urinary Volume/ body weight ([3]; monotherapy 3 mg/kg): 0.08184 ± 0.01199 L/kg | Urinary Glucose concentration ([3]; monotherapy 10 mg/kg): 272.62 ± 22.51 mmol | Urinary K+ concentration ([3]; monotherapy 10 mg/kg): 1.75 ± 0.06 mmol | Urinary Na+ concentration ([3]; monotherapy 10 mg/kg): 1.30 ± 0.08 mmol | Urinary Volume/ body weight ([3]; monotherapy 10 mg/kg): 0.05682 ± 0.00259 L/kg | urinary sodium excretion higher in comparison to solvent control group A ([3]; monotherapy 3 mg/kg): 20.1% | influence on urinary glucose vs solvent, in words [3]: no influence | influence on urinary potassium vs solvent, in words [3]: no influence | influence on urinary sodium vs solvent, in words [3]: no influence | influence on urinary volume vs solvent, in words [3]: no influence | Urinary Glucose concentration [2, 11]: b.d.l. | Urinary K+ concentration [2, 11]: 1.46 ± 0.12 mmol | Urinary Na+ concentration [2, 11]: 0.43 ± 0.03 mmol | Urinary Volume/ body weight [2, 11]: 0.0219 ± 0.00186 L/kg | influence on urinary glucose, in words [2, 12]: no influence | influence on urinary potassium, in words [2, 12]: no influence | influence on urinary sodium, in words [2, 12]: increase | influence on urinary volume, in words [2, 12]: no influence | Urinary Glucose concentration [2, 13]: b.d.l. | Urinary K+ concentration [2, 13]: 1.76 ± 0.11 mmol | Urinary Na+ concentration [2, 13]: 0.27 ± 0.06 mmol | Urinary Volume/ body weight [2, 13]: 0.02932 ± 0.00294 L/kg | influence on urinary potassium, in words [2, 14]: no influence | influence on urinary sodium, in words [2, 14]: weak increase | influence on urinary volume, in words [2, 14]: no influence | influence on urinary glucose, in words ([2]; Table 4 study, monotherapy: canagliflozin all doses (1, 3, 10 mg/kg), finerenone 1 mg/kg): no influence | Urinary Glucose concentration [2, 15]: b.d.l. | Urinary K+ concentration [2, 15]: 1.84 ± 0.10 mmol | Urinary Na+ concentration [2, 15]: 0.33 ± 0.43 mmol | Urinary Volume/ body weight [2, 15]: 0.02344 ± 0.00162 L/kg | influence on urinary potassium, in words [2, 9]: no influence | influence on urinary sodium, in words [2, 9]: increase | influence on urinary volume, in words [2, 9]: no influence | influence on urinary glucose, in words [2, 10]: no influence | proteinuria reduction ([4]; 1 mg/kg once daily orally): −27% | proteinuria reduction ([4]; 3 mg/kg once daily orally): −87% | renal histology parameters / renal lesions, in words ([4]; once daily orally): comparable protection from renal lesions at higher dosages | systolic blood pressure, in words ([4]; once daily orally): significantly decreased

OC[C@H]1O[C@@H](c2ccc(Cl)c(Cc3ccc(O[C@H]4CCOC4)cc3)c2)[C@H](O)[C@@H](O)[C@@H]1O [empagliflozin, (2S,3R,4R,5S,6R)-2-[4-chloro-3-[[4-[(3S)-oxolan-3-yl]oxyphenyl]methyl]phenyl]-6-(hydroxymethyl)oxane-3,4,5-triol]
Urinary Glucose concentration ([3]; monotherapy 3 mg/kg): 321.55 ± 22.78 mmol | Urinary K+ concentration ([3]; monotherapy 3 mg/kg): 2.22 ± 0.13 mmol | Urinary Na+ concentration ([3]; monotherapy 3 mg/kg): 1.47 ± 0.10 mmol | Urinary Volume/ body weight ([3]; monotherapy 3 mg/kg): 0.09998 ± 0.00712 L/kg | Urinary Glucose concentration ([3]; monotherapy 10 mg/kg): 317.16 ± 25.10 mmol | Urinary K+ concentration ([3]; monotherapy 10 mg/kg): 2.64 ± 0.20 mmol | Urinary Na+ concentration ([3]; monotherapy 10 mg/kg): 2.05 ± 0.27 mmol | Urinary Volume/ body weight ([3]; monotherapy 10 mg/kg): 0.11038 ± 0.00455 L/kg | urinary sodium excretion higher in comparison to solvent control group A ([3]; monotherapy 3 mg/kg): 27.2% | influence on urinary glucose vs solvent, in words [3]: increases | influence on urinary potassium vs solvent, in words [3]: increases | influence on urinary sodium vs solvent, in words [3]: increases | influence on urinary volume vs solvent, in words [3]: increases | Urinary Glucose concentration [2, 11]: 0.34 ± 0.10 mmol | Urinary K+ concentration [2, 11]: 1.66 ± 0.11 mmol | Urinary Volume/ body weight [2, 11]: 0.0278 ± 0.00358 L/kg | Urinary Glucose concentration [2, 16]: 1.21 ± 0.21 mmol | Urinary K+ concentration [2, 16]: 1.74 ± 0.15 mmol | Urinary Na+ concentration [2, 16]: 0.13 ± 0.02 mmol | Urinary Volume/ body weight [2, 16]: 0.02296 ± 0.00275 L/kg | Urinary Glucose concentration [2, 17]: 4.26 ± 0.59 mmol | Urinary K+ concentration [2, 17]: 1.85 ± 0.11 mmol | Urinary Na+ concentration [2, 17]: 0.17 ± 0.03 mmol | Urinary Volume/ body weight [2, 17]: 0.02845 ± 0.00191 L/kg | influence on urinary glucose, in words [2, 12]: dose-dependent and strong increase | influence on urinary potassium, in words [2, 12]: no influence | influence on urinary sodium, in words [2, 12]: no influence | influence on urinary volume, in words [2, 12]: no influence | proteinuria reduction ([4]; 3 mg/kg once daily orally): −38% | proteinuria reduction ([4]; 10 mg/kg once daily orally): −64% | glucosuric action, in words ([4]; once daily orally): strongly glucosoric | renal histology parameters / renal lesions, in words ([4]; once daily orally): comparable protection from renal lesions at higher dosages
